The text below walks through data of patent EP2667887B1, “PHARMACEUTICAL COMPOSITION COMPRISING THE PEPTIDE GLU-ASP-GLY AND USE FOR TREATING HELICOBACTER PYLORI INDUCED GASTRODUODENAL DISEASES” («Garmonia», Ltd., priority 2011, dated 2012).

The subject of series [1] is mice embryonic fibroblasts (MEF+/+, knockout mice line LMNA). Description: Effect on Helicobacter pylori-induced mitochondrial damage in mouse embryonic fibroblasts (mito-GFP confocal microscopy). The conditions noted are these: peptide 10 µM added 30 minutes before Helicobacter pylori (strain Cag J117), 7 hours incubation; compared to control. It counts as cell-based. As for the experimental part: A study of the effect of a pharmaceutical composition comprising the peptide H-Glu-Asp-Gly-OH as an active substance on molecular and cellular mechanisms of apoptosis was carried out on a wild type of mice embryonic fibroblasts (MEF+/+, knockout mice line LMNA). Cells were cultivated at 37°C in a damp incubation medium containing 5% CO2 in DMEM (Dulbecco's Modified Eagle's Medium, ICN Biomedicals) and 10% calf embryonic serum. Preliminary sorting of cells for passaging in a 1:3-1:5 ratio was performed using a mixture of 0.125% trypsin, 0.02M EDTA (ethylenediaminetetraacetic acid), 0.02% glucose dissolved in a phosphate buffer. Cells were passaged in a culturing medium for 5 days and then taken for the study.
On the 5th day after the beginning of passaging of the cells peptide H-Glu-Asp-Gly-OH was added in the culturing medium in the dose of 10 µM, and in 30 minutes the cells were taken for study. […]
The status of isolated mitochondria was evaluated using immunofluorescent confocal laser microscopy. […]
Confocal microscopy of mitochondria with optical density evaluation was carried out in an inverted confocal microscope Olympus Fluoview CM FV300-IX70 using an apochromatic lens 606 UPlan (Olympus). A 488 nm excitation wave of argon laser was used in each chamber to specify mito-GFP fluorescence that verifies the structure of mitochondria.

Series [2] in a line: Acute toxicity study, single administration. It counts as in vivo, white mongrel male mice. Conditions: mice, single intramuscular administration, 1-5 mg/kg; dose exceeds the therapeutic dose by more than 5000 times. As for the experimental part:
(§1) General toxicity of peptide H-Glu-Asp-Gly-OH was studied in accordance with the requirements of "Manual for Experimental (Pre-Clinical) Study of New Pharmacological Substances" (2000): acute toxicity in case of a single administration of the preparation, as well as subacute and chronic toxicity in case of a long-term administration of the peptide.
Acute toxicity study was carried out on 66 white mongrel male mice with body weight 20-22 g. The animals were randomly subdivided into 6 equal groups. The preparation was administered to the animals once, intramuscularly in the doses of 1, 2, 3, 4, 5 mg/kg in 0,25 ml of sterile 0,9% NaCl solution. Control animals were treated with 0,9% NaCl solution in the same volume.

Series [3] in a line: Subacute toxicity study, 90 days. It counts as in vivo, white mongrel male rats. Conditions: rats, daily for 90 days, 1 µg/kg, 0,1 mg/kg, doses exceed the therapeutic one by 100-1000 times. As for the experimental part: as §1
Subacute toxicity study was carried out on 64 white mongrel male rats with body weight 180-220 g. Experimental animals received the preparation daily, once a day for 90 days in the doses of 1 µg/kg, 0,1 mg/kg, 1 mg/kg in 0,5 ml of sterile 0,9% NaCl solution. Control animals were treated with sterile 0,9% NaCl solution in the same volume. Before the administration of the preparation, as well as on the 30th, 60th and 90th day after the beginning of the administration of the preparation peripheral blood morphology and properties were studied in the animals. Upon completion of the experiment biochemical and coagulology indices of the blood were evaluated.

Series [4] in a line: Chronic toxicity study, 6 months. It is filed as in vivo, male guinea pigs. The conditions noted are these: guinea pigs.
Excerpt: as §1
Chronic toxicity was studied for 6 months basing on the duration of the recommended clinical administration of the preparation on 92 male guinea pigs with body weight 310-350 g. Experimental animals were treated with the peptide daily, once a day, intramuscularly for 6 months in the doses of 1 µg/kg, 0,1 mg/kg, 1 mg/kg in 0,5 ml of sterile 0,9% NaCl solution. Control animals received sterile 0,9% NaCl solution according to the same scheme and in the same volume. The following indices were identified in the peripheral blood of the animals using traditional methods: quantity of erythrocytes, hemoglobin, reticulocytes, thrombocytes, leukocytes, leukocyte formula, erythrocyte sedimentation rate (ESR), erythrocyte resistance. Further, total protein was identified in the blood serum by the Lowry method, as well as potassium and sodium using plasma spectrophotometry method. […]

“glutamyl-aspartyl-glycine [H-Glu-Asp-Gly-OH]”: the “luminescence of mitochondrial GFP in terms of optical density values” in series [1] is given as “exceeded the control indices”. Moreover, the acute toxicity entry in series [2] is on record as “does not cause toxic reactions”. Moreover, in series [3], the subacute toxicity result is reported as “no side effects”. Further, the chronic toxicity result in series [4] (intramuscularly daily for 6 months, 1 µg/kg, 0,1 mg/kg, 1 mg/kg, doses exceed the therapeutic one by 100-1000 times) is given as “no side effects”. Moreover, the “effect on the ESR, erythrocyte resistance and biochemical indices of the blood serum” value in series [4] (long-term administration) is “No significant effect”.
